Measured values: patent US6320024A, “Method for design of substances that enhance memory and improve the quality of life” (priority 1999, dated 2001)
Ends that are not written are not given here. Peptide text beside a SMILES is read from it.

Tests used:
CD-1 male mice [1] = assay: Memory-enhancing effect on retention of FAAT in T-maze, weakly trained mice (poor retention in vehicle controls), post-training ICV administration; assay type: in vivo
Protocol: (§1) After 1 week in the laboratory, CD-1 male mice obtained from Charles River Breeding Laboratories were caged individually 24-28 hours prior to training and remained singly housed until retention was tested one week later. Animal rooms were on a 12 hour light/dark cycle with lights going on at the hour of 0600. Median body weight was 35 g, with a range of 33-38 g. Mice were assigned randomly to groups of 15 in the experiments reported in FIGS. 1-18 and groups of 10 for the dose-response curves (FIGS. 19 and 20) and were trained and tested between the hours of 0700 and 1500.
With the exception of Val Phe and Phe Val from Sigma, all peptides used in these studies were synthesized and analyzed to establish purity by standard methods at the Beckman Research Institute. Peptides were dissolved in: (1) saline; (2) 8% vol/vol dimethyl sulfoxide: (3) glacial acetic acid neutralized with […]; or (4) NaOH neutralized with HCl. […] Analysis of variance showing insignificant differences among the latter, the value for the most frequently employed (No. 2 above) was used for comparison with groups receiving test peptides.
The T-maze used for footshock active avoidance training (FAAT) consisted of a black plastic alley (46 cm long) with a start box at one end and two goal boxes (17.5 cm long) at the other. […]

CD-1 male mice [2] = assay: Amnestic effect on retention of footshock active avoidance training (FAAT) in T-maze, well-trained mice, post-training ICV administration; assay type: in vivo; details: for amnestic effect on retention of FAAT: well-trained mice, post-training ICV, 6.14 nmol of peptide per mouse except dose-response curves, retention tested one week later; for molar amnestic efficacy / potency compared with another peptide: dose-response curves or FIG. 19
Protocol: as §1
With the exception of Val Phe and Phe Val from Sigma, all peptides used in these studies were synthesized and analyzed to establish purity by standard methods at the Beckman Research Institute. Peptides were dissolved in: (1) saline; (2) 8% vol/vol dimethyl sulfoxide: (3) glacial acetic acid neutralized with […]; or (4) NaOH neutralized with HCl.
With exception of dose-response curves, the experiments reported below tested whether or not there was an amnestic: effect at 6.14 nmol of peptide per mouse.
The T-maze used for footshock active avoidance training (FAAT) consisted of a black plastic alley (46 cm long) with a start box at one end and two goal boxes (17.5 cm long) at the other. The start box was separated from the alley by a plastic guillotine door that prevented movement down the alley until training began. The alley was 12.5 cm deep and 9.8 cm wide. An electrifiable stainless steel rod floor ran throughout the maze.
Mice were not permitted to explore the maze before training. A block of training trials began when a mouse was placed in the start box. The guillotine door was raised and a muffled doorbell-type buzzer sounded simultaneously; footshock was 5 seconds later through a scrambled grid floor shocker (Colbourn Instruments, Model E13-08). The goal box first entered during the first set of trials was designated as "incorrect", and footshock was continued until the mouse entered the other goal box, which in all subsequent trials was designated "correct" for the particular mouse. At the end of each group of trials, the mouse was removed to its home cage.
As training proceeded, a mouse made one of two types of responses. A response latency longer than 5 seconds was classed as an escape from the footshock. A response latency less than or equal to 5 seconds was considered an avoidance, since the mouse avoided receiving a footshock. Two exclusion criteria were applied to reduce learning variability among mice, as follows. On the first training trials, mice with escape latencies greater than 20 seconds were discarded. Mice not having at least one errorless escape latency between 1.5 and 3.5 seconds on training trials 3 or 4 were excluded. […] Mice received five such training trials. One week after training and post-trial administration of vehicle alone or vehicle containing test substance, T-maze training was resumed until each mouse made five avoidance responses in six consecutive training trials (trials to criterion). The recall score was taken to be the percentage of tested mice remembering original training.
In these instances, training was performed under conditions that tend to maximize learning (sound intensity, 65 decibels; footshock current, 0.35 mA; intertrial interval, 45 seconds).

CD-1 male mice [3] = details: cited from earlier work; for amnestic effect on retention of FAAT (literature): post-training ICV in mice, references 1 and 12
[4] = system: hippocampal neurons in culture; details: reference 17; cited from earlier work

## NC(=O)CC[C@H](N)C(=O)N[C@@H](Cc1ccccc1)C(=O)N[C@@H](Cc1ccccc1)C(=O)NCC(=O)O [Gln Phe Phe Gly] (H-QFFG-OH)
CD-1 male mice [1]; poor retention in vehicle controls
  memory-enhancing potency compared with other peptides: by far the most potent
CD-1 male mice [2]
  amnestic effect on retention of FAAT: amnestic

## CC(C)[C@H](N)C(=O)N[C@@H](Cc1ccccc1)C(=O)N[C@@H](Cc1ccccc1)C(=O)O [Val Phe Phe] (H-Val-Phe-Phe-OH)
CD-1 male mice [1]; weakly trained animals, ICV
  memory-enhancing effect: memory enhancer
CD-1 male mice [2]
  molar amnestic efficacy / potency compared with another peptide: not significantly different from that of the β-A4 homologue
  amnestic effect on retention of FAAT: amnestic

## CC(C)[C@H](N)C(=O)N[C@@H](Cc1ccccc1)C(=O)N[C@H](C(=O)O)[C@@H](C)O [Val Phe Thr] (H-Val-Phe-Thr-OH)
CD-1 male mice [2]
  amnestic effect on retention of FAAT: amnestic

## His Ser Asp Ala Val Phe Thr Asp Asn Tyr Thr Arg Leu Lys Gln Met Ala Val Lys Lys Tyr Leu Asn Ser Ile Leu Asn-NH2 (HSDAVFTDNYTRLKQMAVKKYLNSILN-NH2) [VIP]
CD-1 male mice [3]
  amnestic effect on retention of FAAT (literature): amnestic

## KLVFFAE [Lys Leu Val Phe Phe Ala Glu]
CD-1 male mice [2]
  amnestic effect on retention of FAAT: not amnestic

## Pro Arg Pro Gly Pro Gln Gln Phe Phe Gly Leu Met-NH2 (PRPGPQQFFGLM-NH2) [Substance Pro]
[4]
  effect on trophic and toxic effects of β-A4: counteract trophic and toxic effects of β-A4

## VFFAE [Val Phe Phe Ala Glu]
CD-1 male mice [2]
  molar amnestic efficacy / potency compared with another peptide: lesser potency
  amnestic effect on retention of FAAT: amnestic

## VFFAEDVGSNK [β-(18-28)]
CD-1 male mice [3]
  amnestic effect on retention of FAAT (literature): amnestic

## β-(1-18): β-A4 fragment of reference 1, probably misprint of β-(1-28)
CD-1 male mice [3]; 1.5 nmol per mouse, reference 1
  amnestic activity at lower dose (literature): active
